Read-outs that look alike come from different tables or passages of the source.
What was measured:
[1] = tested on: E. coli K12 BW25113 carrying the pooled ASKA overexpression plasmid library (~4400 ORFs); test: Chemical-genetic profiling: pooled competitive growth of the ASKA gene-overexpression library with and without AMP, deep sequencing readout; assay type: cell-based, Escherichia coli
Source text: We generated chemical-genetic interaction profiles for a diverse set of AMPs (Table 1) by screening them against a comprehensive library of gene overexpressions in E. coli[21]. Increasing gene dosage is a widely applied approach to reveal the targets of small-molecule antibiotics[22],[23]. It also informs on the ‘latent resistome’, that is, the collection of genes where a change from native expression level enhances resistance to a particular drug[24]. We applied a sensitive competition assay by monitoring growth of a pooled plasmid library, overexpressing all the E. coli ORFs (Fig. 1a), as we reported earlier. Specifically, E. coli cells carrying the pooled plasmid collection were grown in the presence or absence of one of the 15 AMPs tested, at a sub-inhibitory concentration that increased the doubling time of the whole population by 2-fold. Following 12 generations of growth, the plasmid pool was isolated from each selection and the relative abundance of each plasmid was determined by a deep sequencing readout (see Methods).
We carried out chemical-genetic profiling to determine the impact of the overexpression of each E. coli ORF on bacterial susceptibility to each of the 15 different AMPs. To this end, we used the complete set of E. coli K-12 Open Reading Frame Archive (ASKA) plasmid library (GFP minus) where each E. coli ORF is cloned into a high copy number expression plasmid (pCA24N-ORFGFP(-)). Prior to screening, the ASKA library was grown in the original host strain E. coli K-12 AG1 in 96-well plates (growth conditions: 37 °C, 280 rpm, LB medium). An equal aliquot of each member of the ASKA library (each well of the 96-well plates) was pooled together and the plasmid DNA (pCA24N-ORF-GFP(-)) was isolated and transformed into E. coli K12 BW25113 strain[51]. To obtain a negative control strain not having any overexpressed gene, the plasmid without a cloned ORF (pCA24N-noORF) was also transformed into the same E. coli strain. Then, on the pooled collection, we applied a previously reported competitive growth assay. Specifically, the pooled overexpression library and the control strain were grown in parallel in MS medium supplemented with 20 µg per ml chloramphenicol and the overexpression was induced by 100 µM isopropyl-ß-D-thiogalactopyranoside (IPTG). After 1 h induction, ~5 × 10^5 bacterial cells from the library were inoculated into each well of a 96-well microtiter plate containing a concentration gradient of an AMP in the MS medium supplemented with 20 µg per ml chloramphenicol and 100 µM IPTG. At the same time, both the library and the control strain with the empty plasmid were grown in the absence of any AMPs. We took special care to grow both of these samples in the exact same conditions as the samples in the presence of AMPs. Bacterial growth was monitored in a microplate reader (Biotek Synergy 2) for 24 h. At the end of the exponential growth phase, we selected those wells in which the doubling time of the cell population was increased by 2-fold. Then, from these wells, cells were split into four equal proportion and each was transferred into 20 mL of MS medium supplemented with the corresponding AMP in four different concentrations in the range that slowed down growth by two-fold in the microtitre plate. […] The rationale for this 2-step process was to maintain competition in exponential phase for 12 generations of growth, efficiently control the growth rate in a reproducible manner and obtain the plasmid pool with standard DNA isolation protocol (innuPREP plasmid mini Kit, Analytik Jena AG) in a yield that is enough for the downstream analysis. The cultures were vigorously shaken along the entire protocol to make sure that the cultures are completely homogeneous and therefore biasing interactions between clones (such as trans-resistance) was minimized. […]

[2] = tested on: E. coli BW25113 overexpression strains (ASKA plasmids); test: Minimum inhibitory concentration (MIC), serial broth dilution, single-gene overexpression strains vs empty-vector control; assay type: cell-based, Escherichia coli; details: for Relative MIC: broth dilution, MS medium, 100 µM IPTG, 30 °C, 20-24 h, OD600, 3 replicates
Summary of the method: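 E. coli overexpression strains grown in MS medium with chloramphenicol, induced with 100 µM IPTG for 1 h at 30 °C, then about half-million cells inoculated into 12-step AMP dilutions (typically 1.2-fold steps). OD600 read after 20–24 h at 30 °C with shaking; triplicate strains compared with empty-vector control.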

[3] = tested on: E. coli gene overexpression; details: cited from earlier work
Source text: Supplement 41467_2019_13618_MOESM1_ESM.docx, table 1: Supplementary Table 1. Collected examples of E. coli gene overexpression from the literature as a confirmation of our chemical-genetic screen results. | column: Overexpression phenotype

bacterial membrane = details: literature mining; ref superscript numbers in the cell, listed in Supplementary Data 7 sheet References; cited from earlier work
Source text: Supplement 41467_2019_13618_MOESM10_ESM.xlsx, sheet "AMP details" | column: Pore formation

[4] = overexpression strain gadW, MIC of overexpression strain / MIC of empty-plasmid control
[5] = overexpression strain lptB, MIC of overexpression strain / MIC of empty-plasmid control
[6] = gene marA overexpressed, ref 3 (Warner & Levy 2010)
[7] = overexpression strain mzrA, MIC of overexpression strain / MIC of empty-plasmid control
[8] = overexpression strain nikB, MIC of overexpression strain / MIC of empty-plasmid control

## LLGDFFRKSKEKIGKEFKRIVQRIKDFLRNLVPRTES [LL37, LL-37 human cathelicidin, human host-defense peptide; disrupts cell membrane; cluster C2]
[1]; gene ompT, whether the literature phenotype was captured by the overexpression screen
  Overexpression phenotype, Chemical-genetic profile: Confirmed
[2]; mlaD overexpression strain relative to control (wild-type+empty vector), 3 replicates each, from optical density values of serial dilution plates, AMP in µg ml-1
  Average relative change in MIC: 2.42
[2]; [4]
  Relative MIC: 0.79
[2]; overexpression strain hyfA, MIC of overexpression strain / MIC of empty-plasmid control
  Relative MIC: 0.74
[2]; [5]
  Relative MIC: 1.2
[2]; overexpression strain mlaC, MIC of overexpression strain / MIC of empty-plasmid control
  Relative MIC: 1.43
[2]; overexpression strain mlaD, MIC of the overexpression strain / MIC of the control strain (wild-type carrying the empty plasmid)
  Relative MIC: 2.5
[2]; overexpression strain yijE, MIC of overexpression strain / MIC of empty-plasmid control
  Relative MIC: 1.2
[2]; overexpression strain ytjB, MIC of overexpression strain / MIC of empty-plasmid control
  Relative MIC: 1.2
[3]; [6]
  Overexpression phenotype, Literature: Resistance^3
[3]; gene ompT overexpressed, ref 4 (Stumpe et al. 1998)
  Overexpression phenotype, Literature: Resistance^4
Bacterial membrane
  Pore formation (whether AMP makes pores in the bacterial membrane): Yes22

## RRRPRPPYLPRPRPPPFFPPRLPPRIPPGFPPRFPPRFP [PR39, PR-39, cathelicidin, source pig; cluster C4]
[1]; gene folA (dihydrofolate reductase) overexpressed
  Effect of folA overexpression on susceptibility: resistance
[1]; gene ptrB, whether the literature phenotype was captured by the overexpression screen (9 out of 13 captured)
  Overexpression phenotype, Chemical-genetic profile: Confirmed
[1]; gene sbmA, whether the literature phenotype was captured by the overexpression screen
  Overexpression phenotype, Chemical-genetic profile: Confirmed
[2]; overexpression strain cvpA, MIC of overexpression strain / MIC of empty-plasmid control
  Relative MIC: 0.8
[2]; [4]
  Relative MIC: 1.32
[2]; overexpression strain mhpA, MIC of overexpression strain / MIC of empty-plasmid control
  Relative MIC: 0.78
[2]; [7]
  Relative MIC: 0.8
[2]; [8]
  Relative MIC: 0.8
[2]; overexpression strain uhpC, MIC of overexpression strain / MIC of empty-plasmid control
  Relative MIC: 1.25
[3]; gene ptrB overexpressed, ref 2 (Mattiuzzo et al. 2014)
  Overexpression phenotype, Literature: Resistance^2
[3]; gene sbmA overexpressed, ref 9 (Pranting et al. 2008)
  Overexpression phenotype, Literature: Sensitivity^9
Bacterial membrane
  Pore formation (whether AMP makes pores in the bacterial membrane): No9

## KTKKKFLKKT [PXB, Polymyxin B, from Bacillus polymyxa, purchased from Sigma-Aldrich; disrupts cell membrane; cluster C1]
[1]; gene eptA, whether the literature phenotype was captured by the overexpression screen
  Overexpression phenotype, Chemical-genetic profile: Confirmed
[1]; gene marA, whether the literature phenotype was captured by the overexpression screen
  Overexpression phenotype, Chemical-genetic profile: Confirmed
[2]; [4]
  Relative MIC: 0.7
[2]; [5]
  Relative MIC: 0.7
[2]; [7]
  Relative MIC: 0.66
[2]; [8]
  Relative MIC: 1
[3]; gene arnT overexpressed, ref 5 (Trent et al. 2001)
  Overexpression phenotype, Literature: Resistance^5
[3]; gene eptA overexpressed, ref 7 (Olaitan et al. 2014)
  Overexpression phenotype, Literature: Resistance^7
[3]; [6]
  Overexpression phenotype, Literature: Resistance^3
[3]; gene pmrD overexpressed, ref 8 (Roland et al. 1994)
  Overexpression phenotype, Literature: Resistance^8
Bacterial membrane
  Pore formation (whether AMP makes pores in the bacterial membrane): Yes2
